Data as given in patent US12104181B2, “Compositions and methods for treating viral infections targeting TRIM7” (THE BOARD OF REGENTS OF THE UNIVERSITY OF TEXAS SYSTEM, priority 2021, dated 2024).
Residues, ends and D or L forms follow the SMILES beside them. *: point of attachment. Cbz = O=C(OCc1ccccc1)*

How the values were obtained:
[1] = system: CVB3-GFP; format: cell-based, coxsackievirus B3; conditions: for CVB3 infectivity in control HeLa-Fluc cells: 1 MOI, 8 hpi
[2] = system: CVB3 HA-2BC; experiment: Viral protein degradation in co-transfected 293T cells, Western blot; format: cell-based; conditions: MG132 10 μM at 24 hours post-transfection for 6 hours
From the text: Since TRIM7 binds 2C and 2BC, it was next tested whether TRIM7 targets either protein for degradation. […] 293T cells were co-transfected with plasmids expressing HA-tagged CVB3 viral proteins and 3×Flag-tagged TRIM7 (TRIM7-3F) or Fluc-expressing vector. […] Moreover, proteasome inhibition by MG132 restored HA-2BC protein in the presence of TRIM7 (FIG. 4F). Similar results were obtained with 2BC from other TRIM7-targeted enteroviruses, including EV71 and EVD68, whereas 2BC from TRIM7-insensitive MenV was unaffected (FIGS. 4G-4H). Accordingly, 2BC from EV71, but not MenV, interacted with TRIM7 in pulldown assays (FIG. 4I).
Protein lysate preparation and Western blot. Tissue culture cells were lysed in Nonidet P-40 (NP-40) buffer (50 mM Tris pH 7.4, 150 mM NaCl, 1% (v/v) NP-40, 1 mM EDTA, protease inhibitor cocktail) and incubated on ice for 30 min, followed by centrifugation at 13,000 rpm for 20 min at 4° C. For mouse tissue lysates, fresh tissues were collected in 2 ml round-bottom Eppendorf tubes containing NP40 lysis buffer and cut to small pieces using scissors. Then the tissues were homogenized with a Bullet Blender homogenizer (Next Advanced Inc., Averill Park, NY), and centrifuged at 13,000 rpm for 20 min at 4° C. Western blot analyses were performed as previously described (Mar et al., 2018).

[3] = system: vesicular stomatitis virus; format: cell-based
[4] = system: coxsackievirus B3 (CVB3-GFP); format: cell-based; conditions: HeLa cells, replicate R1; for Percent Infected R1: GFP-positive cells within RFP-positive gate

Row | Compound | CVB3 infectivity in control HeLa-Fluc cells [1] | Percent Infected R1 [4] | Z score R1 [4] | further results
1 | c1ccc(CNc2nc(NCc3ccccc3)c3ccccc3n2)cc1 [DBeQ] | modestly reduced | – | – | rescue of CVB3-GFP infection in TRIM7-expressing cells [1]: failed to rescue
2 | CC(C)C[C@@H](C=O)NC(=O)[C@H](CC(C)C)NC(=O)[C@H](CC(C)C)NC(=O)OCc1ccccc1 [MG132] (Cbz-Leu-Leu-Leu-aldehyde) | modestly impaired | – | – | rescue of CVB3-GFP infection in TRIM7-expressing cells [1]: striking rescue; rescue of viral replication from transfected CVB3-GFP RNA [1]: rescued; rescue of infection in TRIM7-expressing cells, late addition ([1]; added at later time points (post primary translation, >4 hours)): failed to rescue; HA-2BC protein in the presence of TRIM7 [2]: restored
3 | CO/C1=C\C(C)=C\[C@@H](C)[C@@H](O)[C@@H](C)C/C(C)=C/C=C/[C@H](OC)[C@@H]([C@@H](C)[C@@H](O)[C@H](C)[C@@]2(O)C[C@@H](O)[C@H](C)[C@@H](C(C)C)O2)OC1=O [bafilomycin A1] | no impact | – | – | replication of vesicular stomatitis virus [3]: inhibited
4 | CCN(CC)CCCC(C)Nc1ccnc2cc(Cl)ccc12 (centres unmarked) [chloroquine] | no impact | – | – | replication of vesicular stomatitis virus [3]: inhibited
5 | MKRN2: human RING type E3 ligase expressed from lentiviral vector | – | 93.3% | 0.06 | –
6 | RAD18: human RING type E3 ligase expressed from lentiviral vector | – | 91.2% | 0.033 | –
7 | RNF5: human RING type E3 ligase expressed from lentiviral vector | – | 96.1% | 0.1 | –
8 | RNF20: human RING type E3 ligase expressed from lentiviral vector | – | 91.8% | 0.041 | –
9 | RNF40: human RING type E3 ligase expressed from lentiviral vector | – | 97.1% | 0.11 | –
10 | RNF126: human RING type E3 ligase expressed from lentiviral vector | – | 94.5% | 0.08 | –
11 | TRIM5: human RING type E3 ligase expressed from lentiviral vector | – | 56.2% | −0.412 | –
12 | TRIM21: human RING type E3 ligase expressed from lentiviral vector | – | 65.7% | −0.291 | –
13 | TRIM25: human RING type E3 ligase expressed from lentiviral vector | – | 53.7% | −0.444 | –
